In US20090275583A1, “ANTIVIRAL COMPOUNDS AND USE THEREOF” (Myriad Genetics, Incorporated, priority 2006, published 2009):
Like-named read-outs stand apart in the source and are kept apart here.

Columns and labels:
[1] = system: HIV-1 laboratory strain, NL4-3; assay: MT-4 cytoprotection assay; type: cell-based; conditions: Human immunodeficiency virus 1, NL43, MT4, 96 h; MT-4 cells, four days incubation, WST-1 readout; read-out: MT4 EC50
Experimental: The HTLV-1 transformed T cell line, MT-4, is highly susceptible to HIV-1 infection. Anti-HIV-1 agents were evaluated in this target cell line by protection from the HIV-induced cytopathic effect. In this assay, viability of both HIV-1 and mock-infected cells was assessed in a […] assay that monitors the ability of metabolically-active cells to reduce the tetrazolium salt WST-1. Cytoprotection by antiviral compounds is indicated by the positive readout of increased WST-1 cleavage.
Briefly, exponentially growing MT-4 cells were mock-infected or batch-infected with the HIV-1 laboratory strain, NL4-3, at a multiplicity of infection of 0.0005. Following a two hour infection, the cells were washed to remove unbound virus and plated in the presence of increasing concentrations of compound. After four days incubation, cytoprotection in the infected cells and compound toxicity in mock-infected cells were analyzed using the WST-1 assay.

[2] = system: HIV-1NL4-3; assay: P4-MAGI assay; type: cell-based
Description: P4 cells were used to test the effects of compounds on virus fusion activity. P4 cells are HIV-1 infectable CD4^+ HeLa cells that bear the bacterial lacZ gene under the control of a minimal HIV-1 LTR. Charneau, et. al., J. Mol. Biol. 241:651-662 (1994). When these cells are infected with HIV-1, β-galactosidase is expressed due to Tat activation of the viral LTR. In this assay, P4 cells were infected with the laboratory adapted strain HIV-1NL4-3 at a multiplicity of infection of 1 in the presence of DEAE-Dextran. Immediately after addition of virus to the cells, increasing concentrations of compound were added to the cells. […] The effect on cell viability (TC50, concentration of compound that inhibits growth by 50%) was determined in mock-infected cells with the WST-1 Cell Proliferation Reagent (Roche Diagnostics).

[3] = Human immunodeficiency virus 1, 24 h, P4 cells, 24 hour incubation, β-galactosidase expression, read-out: P4-MAGI IC50

Compound	IC50 [2, 3] [nM]	also measured
C=C(C)[C@@H]1CC[C@]2(C(=O)NCc3cccc(C(=O)NCCC(=O)O)c3)CC[C@]3(C)C(CCC4[C@@]5(C)CC[C@H](O)C(C)(C)C5CC[C@]43C)C12 (stereo partly shown) [Example 3]		EC50 [1]: 10000 nM
C=C(C)[C@@H]1CC[C@]2(C(=O)NCc3cccc(C(=O)NCCc4cccc(C(=O)O)c4)c3)CC[C@]3(C)C(CCC4[C@@]5(C)CC[C@H](O)C(C)(C)C5CC[C@]43C)C12 (stereo partly shown) [Example 16]		EC50 [1]: 210 nM
C=C(C)[C@@H]1CC[C@]2(C(=O)NCc3ccc(C(=O)NCCC(=O)O)cc3)CC[C@]3(C)C(CCC4[C@@]5(C)CC[C@H](O)C(C)(C)C5CC[C@]43C)C12 (stereo partly shown) [Example 49]		EC50 [1]: 10000 nM
C=C(C)[C@@H]1CC[C@]2(C(=O)NCc3ccc(C(=O)NCCCCC(=O)O)cc3)CC[C@]3(C)C(CCC4[C@@]5(C)CC[C@H](O)C(C)(C)C5CC[C@]43C)C12 (stereo partly shown) [Example 50]		EC50 [1]: 10000 nM
C=C(C)[C@@H]1CC[C@]2(C(=O)NCc3ccc(C(=O)NCCCCCCC(=O)O)cc3)CC[C@]3(C)C(CCC4[C@@]5(C)CC[C@H](O)C(C)(C)C5CC[C@]43C)C12 (stereo partly shown) [Example 51]		EC50 [1]: 10000 nM
C=C(C)[C@@H]1CC[C@]2(C(=O)NCc3cccc(C(=O)NCc4ccc(OCCCN(C)CCN(C)C)c(C(=O)OC)c4)c3)CC[C@]3(C)C(CCC4[C@@]5(C)CC[C@H](O)C(C)(C)C5CC[C@]43C)C12 (stereo partly shown) [Example 122]	265	
C=C(C)[C@@H]1CC[C@]2(C(=O)NCc3cccc(-c4nc5cc(C(=O)O)ccc5[nH]4)c3)CC[C@]3(C)C(CCC4[C@@]5(C)CC[C@H](O)C(C)(C)C5CC[C@]43C)C12 (stereo partly shown) [Example 126]	66	IC50 ([2]; Human immunodeficiency virus 1, text statement, less than about 100 nm, read-out: P4-MAGI assay IC50): < 100 nM
C=C(C)[C@@H]1CC[C@]2(C(=O)NCc3cccc(-c4nc(-c5cccc(C(=O)O)c5)no4)c3)CC[C@]3(C)C(CCC4[C@@]5(C)CC[C@H](O)C(C)(C)C5CC[C@]43C)C12 (stereo partly shown) [Example 127]	768	
C=C(C)[C@@H]1CC[C@]2(C(=O)NCc3cccc(-c4cccc(C(=O)O)c4)c3)CC[C@]3(C)C(CCC4[C@@]5(C)CC[C@H](O)C(C)(C)C5CC[C@]43C)C12 (stereo partly shown) [Example 128]	1000	
C=C(C)[C@@H]1CC[C@]2(C(=O)NCc3cccc(-c4cccc(C(=O)N[C@@H](CC(C)C)[C@@H](O)CC(=O)O)c4)c3)CC[C@]3(C)C(CCC4[C@@]5(C)CC[C@H](O)C(C)(C)C5CC[C@]43C)C12 (stereo partly shown) [Example 129]	3600	
C=C(C)[C@@H]1CC[C@]2(C(=O)NCc3cccc(-c4cccc(C(=O)NCC(=O)OCC)c4)c3)CC[C@]3(C)C(CCC4[C@@]5(C)CC[C@H](O)C(C)(C)C5CC[C@]43C)C12 (stereo partly shown) [Example 131]	6500	
CC(O)(CN1CCCC1)[C@@H]1CC[C@]2(C(=O)NCc3cccc(C(=O)NCCCCC(=O)O)c3)CC[C@]3(C)C(CCC4[C@@]5(C)CC[C@H](O)C(C)(C)C5CC[C@]43C)C12 (stereo partly shown) [Example 138]	550	
C=C(C)[C@@H]1CC[C@]2(CC(=O)NCc3cccc(C(=O)NCc4cccc(C(=O)O)c4)c3)CC[C@]3(C)C(CCC4[C@@]5(C)CC[C@H](O)C(C)(C)C5CC[C@]43C)C12 (stereo partly shown) [Example 142]	3400	
C=C(C)[C@@H]1CC[C@]2(C(=O)NCCc3cccc(C(=O)NC(Cc4ccc(O)cc4)C(=O)OC)c3)CC[C@]3(C)C(CCC4[C@@]5(C)CC[C@H](O)C(C)(C)C5CC[C@]43C)C12 (stereo partly shown) [Example 144]	204	
C=C(C)[C@@H]1CC[C@]2(C(=O)NCCc3cccc(C(=O)NC(Cc4ccc(O)cc4)C(=O)O)c3)CC[C@]3(C)C(CCC4[C@@]5(C)CC[C@H](O)C(C)(C)C5CC[C@]43C)C12 (stereo partly shown) [Example 145]	1100	
C=C(C)[C@@H]1CC[C@]2(C(=O)NCc3cc(C(=O)NCc4ccc(N(C)C)cc4)ccc3F)CC[C@]3(C)C(CCC4[C@@]5(C)CC[C@H](O)C(C)(C)C5CC[C@]43C)C12 (stereo partly shown) [Example 180]	1000	
C=C(C)[C@@H]1CC[C@]2(C(=O)NCc3cc(C(=O)NCc4cccc(C(=O)OC)c4F)ccc3F)CC[C@]3(C)C(CCC4[C@@]5(C)CC[C@H](O)C(C)(C)C5CC[C@]43C)C12 (stereo partly shown) [Example 182]	600	
C=C(C)[C@@H]1CC[C@]2(C(=O)NCCc3cccc(C(=O)NCC4CCCN4C(=O)OC(C)(C)C)c3)CC[C@]3(C)C(CCC4[C@@]5(C)CC[C@H](O)C(C)(C)C5CC[C@]43C)C12 (stereo partly shown) [Example 203]	856	

Compound	IC50 [2, 3] [nM]	also measured
C=C(C)[C@@H]1CC[C@]2(C(=O)NCCc3cccc(C(=O)NCC4CCCN4)c3)CC[C@]3(C)C(CCC4[C@@]5(C)CC[C@H](O)C(C)(C)C5CC[C@]43C)C12 (stereo partly shown) [Example 204]	1940	
C=C(C)[C@@H]1CC[C@]2(C(=O)NCCc3cccc(C(=O)N4CCC(c5ccccc5)CC4)c3)CC[C@]3(C)C(CCC4[C@@]5(C)CC[C@H](O)C(C)(C)C5CC[C@]43C)C12 (stereo partly shown) [Example 205]	1000	
C=C(C)[C@@H]1CC[C@]2(C(=O)NCc3cccc(COCc4cccc(C(=O)O)c4)c3)CC[C@]3(C)C(CCC4[C@@]5(C)CC[C@H](O)C(C)(C)C5CC[C@]43C)C12 (stereo partly shown) [Example 206]	444	
C=C(C)[C@@H]1CC[C@]2(C(=O)NCCc3cccc(C(=O)NC4CCC(C(=O)OC)CC4)c3)CC[C@]3(C)C(CCC4[C@@]5(C)CC[C@H](O)C(C)(C)C5CC[C@]43C)C12 (stereo partly shown) [Example 207]	193	
C=C(C)[C@@H]1CC[C@]2(C(=O)NCCc3cccc(C(=O)NC4CCC(C(=O)O)CC4)c3)CC[C@]3(C)C(CCC4[C@@]5(C)CC[C@H](O)C(C)(C)C5CC[C@]43C)C12 (stereo partly shown) [Example 209]	356	
C=C(C)[C@@H]1CC[C@]2(C(=O)NCCc3cccc(C(=O)NCC4(C(=O)O)CC4)c3)CC[C@]3(C)C(CCC4[C@@]5(C)CC[C@H](O)C(C)(C)C5CC[C@]43C)C12 (stereo partly shown) [Example 219]	396	
C=C(C)[C@@H]1CC[C@]2(C(=O)NCCc3cccc(OCC(O)c4ccc(C(=O)O)cc4)c3)CC[C@]3(C)C(CCC4[C@@]5(C)CC[C@H](O)C(C)(C)C5CC[C@]43C)C12 (stereo partly shown) [Example 220]	259	
C=C(C)[C@@H]1CC[C@]2(C(=O)NCCc3cccc(C(=O)NCc4ncccc4C(=O)O)c3)CC[C@]3(C)C(CCC4[C@@]5(C)CC[C@H](O)C(C)(C)C5CC[C@]43C)C12 (stereo partly shown) [Example 228]	135	
C=C(C)[C@@H]1CC[C@]2(C(=O)NCCc3cccc(C(=O)NCc4ccc(OCCCN5CC(C)NC(C)C5)cc4)c3)CC[C@]3(C)C(CCC4[C@@]5(C)CC[C@H](O)C(C)(C)C5CC[C@]43C)C12 (stereo partly shown) [Example 233]	70	
C=C(C)[C@@H]1CC[C@]2(C(=O)NCCc3cccc(C(=O)NCc4ccc(OCCCN5CCNCC5)cc4)c3)CC[C@]3(C)C(CCC4[C@@]5(C)CC[C@H](O)C(C)(C)C5CC[C@]43C)C12 (stereo partly shown) [Example 238]	678	
C=C(C)[C@@H]1CC[C@]2(C(=O)NCCc3cccc(C(=O)NCc4ccc(OCCCn5cnc(C(=O)O)c5)c(C(=O)O)c4)c3)CC[C@]3(C)C(CCC4[C@@]5(C)CC[C@H](O)C(C)(C)C5CC[C@]43C)C12 (stereo partly shown) [Example 247]	417	
C=C(C)[C@@H]1CC[C@]2(C(=O)NCCc3cccc(S(=O)(=O)NCc4cccc(C(=O)OC)c4)c3)CC[C@]3(C)C(CCC4[C@@]5(C)CC[C@H](O)C(C)(C)C5CC[C@]43C)C12 (stereo partly shown) [Example 248]	208	
C=C(C)[C@@H]1CC[C@]2(C(=O)NCCc3cccc(S(=O)(=O)NCc4cccc(C(=O)O)c4)c3)CC[C@]3(C)C(CCC4[C@@]5(C)CC[C@H](O)C(C)(C)C5CC[C@]43C)C12 (stereo partly shown) [Example 249]	143	
C=C(C)[C@@H]1CC[C@]2(C(=O)NCc3cc(C(=O)NCCc4ccc(S(N)(=O)=O)cc4)ccc3F)CC[C@]3(C)C(CCC4[C@@]5(C)CC[C@H](O)C(C)(C)C5CC[C@]43C)C12 (stereo partly shown) [Example 259]	175	
C=C(C)[C@@H]1CC[C@]2(C(=O)NCCc3cc(C(=O)NCc4ccc(C(=O)OC)cn4)ccc3F)CC[C@]3(C)C(CCC4[C@@]5(C)CC[C@H](O)C(C)(C)C5CC[C@]43C)C12 (stereo partly shown) [Example 260]	150	
C=C(C)[C@@H]1CC[C@]2(C(=O)NCCc3cc(C(=O)NCc4ccc(C(=O)O)cn4)ccc3F)CC[C@]3(C)C(CCC4[C@@]5(C)CC[C@H](O)C(C)(C)C5CC[C@]43C)C12 (stereo partly shown) [Example 263]	198	
C=C(C)[C@@H]1CC[C@]2(C(=O)NCc3cccc(-c4noc(Cc5ccc(C#N)cc5)n4)c3)CC[C@]3(C)C(CCC4[C@@]5(C)CC[C@H](O)C(C)(C)C5CC[C@]43C)C12 (stereo partly shown) [Example 276]	10000	
C=C(C)[C@@H]1CC[C@]2(C(=O)NCc3cccc(-c4noc(Cc5ccc(-c6nnn[nH]6)cc5)n4)c3)CC[C@]3(C)C(CCC4[C@@]5(C)CC[C@H](O)C(C)(C)C5CC[C@]43C)C12 (stereo partly shown) [Example 277]	10000	
